Experimental data taken from patent publication US7321046B2, “Analogs of dictyostatin, intermediates therefor and methods of synthesis thereof” (University of Pittsburgh, priority 2002, dated 2008).
Read-outs that look alike come from different tables or passages of the source.

Key:
[1] = tested on: 1A9/Ptx10 (Phe270 −> Val) β-tubulin mutant cells; assay: Antiproliferative assay (GI50, MTS), paclitaxel-resistant clone; format: cell-based, human; details: for fold-resistance: 1A9/Ptx10 versus parental 1A9
Procedure: (§1) Representative analogs were examined for their antiproliferative activities against human ovarian carcinoma 1A9 cells and their paclitaxel-resistant mutants, 1A9/Ptx10 and 1A9/Ptx22.
(§2) The effects of dictyostatin and its analogs on growth inhibition of parental ([…]) and paclitaxel-resistant (1A9/Ptx10 and Ptx22) ovarian adenocarcinoma cell lines were evaluated following the antiproliferative assay protocol as described earlier (Minguez et al., 2003; Choy et al., 2003; Lazo et al., 2001). Cells were maintained in RPMI medium with 10% FBS in it, plated in tissue culture plates, and allowed to grow for 48-72 h before transferring them into 96-well plates. Cells were allowed to attach and grow for 48 h in 96-well plates after which they were treated with either control (DMSO) or drug in triplicate/quadruplicate. Cells were incubated with the compounds for 72 h. Cells were treated with MTS reagent before reading the plate in a Dynamax plate reader for determining the cell number. The fifty percent growth inhibition values (GI50 values) were calculated for the compounds against all the three cell lines.

[2] = tested on: 1A9/Ptx22 (Ala364 −> Thr) β-tubulin mutant cells; assay: as above; format: cell-based, human; details: for fold-resistance: 1A9/Ptx22 versus parental 1A9
Procedure: as §1, §2

[3] = tested on: microtubules (tubulin polymer); assay: Radiolabeled ligand binding assays; details: for potency relative to 1 in inhibiting the binding of radiolabeled paclitaxel to microtubules: relative to dictyostatin 1
Procedure: The abilities of test agents to inhibit the binding of radiolabeled forms of the microtubule stabilizers paclitaxel, discodermolide and epothilone B from tubulin polymer were determined.
[^3H]Paclitaxel, [^3H]discodermolide and [^14C]epothilone B solutions were prepared as 125 μM stock solutions in 50% DMSO. Radiolabeled compound (final concentration, 4.0 μM) and test agents at final concentrations noted in the text and tables were mixed in 50 μL of 4:1 (v/v) 0.75 M aqueous MSG/DMSO and warmed to 37° C. Meanwhile, a reaction mixture containing 0.75 M MSG, 2.5 μM tubulin, and 25 μM ddGTP was prepared and incubated at 37° C. for 30 min to form microtubuless. A 200 μL aliquot of the microtubule mixture was added to the drug mixtures, and incubation continued for 30 min at 37° C. Reaction mixtures were centrifuged in an Eppendorf 5417C centrifuge at 14,000 rpm for 20 min at room temperature. Radiolabel in the supernatants (100 μL) was determined by scintillation spectrometry.

[4] = tested on: HeLa cells; assay: Multiparameter fluorescence high information content analysis of cellular effects; format: cell-based; set-up: unit not given here; details: 24 h treatment; for Minimum detectable cellular change, Nuclear condensation: Hoechst 33342
Procedure: HeLa cells were plated on collagen-coated 384-well microtiter plates, allowed to attach, then treated for 24 h with test agents. Test agent concentrations began at 1 μM, and two-fold dilutions were made to levels below 1 nM. After the treatment period, the cells were fixed with formalin and their chromatin stained with Hoechst 33342. Cells were permeabilized and treated with primary antibodies for α-tubulin and phosphohistone H3, and then with fluorophore-labeled secondary antibodies. The three fluorescent channels were then examined on an ArrayScan II, which gives quantitative pixel distribution and density information in each channel on a per cell basis.
HeLa cells growing at log phase were trypsinized and plated in 40 μL at a density of 7,000-8,000 cells per well in calf skin collagen I-coated 384-well plates (Falcon #3962; Fisher Scientific). Cells were exposed to test agents or 0.5% DMSO within 2-8 h of plating. Concentrated DMSO stock solutions of all test agents were diluted into solutions of HBSS medium plus 10% FBS and added to the microplate wells (10 μL per well), using an automated liquid handling system (Biomek® 2000; Beckman-Coulter, Inc.) to provide a serial 2-fold dilution of each test agent. The cells were incubated in the presence of test agents for 24 h. At the end of the incubation, the medium was removed and replaced with HBSS containing 4% formaldehyde and 10 μg/mL Hoechst 33342 (25 μL/well) to fix the cells and fluorescently label their chromatin. After incubation at room temperature for 20-30 min, the solution was removed from each well and replaced with HBSS (100 μL/well). Further reagent additions were made to the microplates using the Biomek 2000. After removing the HBSS from each well, cells were permeabilized for 5 min at room temperature with 0.5% (w/w) Triton X-100 in HBSS (10 μL/well). This step extracts a fraction of the soluble cellular components, including soluble tubulin. The wells were washed with HBSS (100 μL/well), followed by addition of a primary antibody solution containing mouse anti-α-tubulin (1:3000) and rabbit anti-phosphohistone H3 (1:500) in HBSS (10 μL/well). After 1 h at room temperature, the wells were washed with HBSS as above, followed by the addition of a secondary antibody solution containing fluorescein-5-isothiocyanate (FITC)-labeled donkey anti-mouse (1:300) and Cy3-labeled donkey anti-rabbit (1:300) antibodies diluted in HBSS (10 μL/well). After 1 h at room temperature, the wells were washed as above, and HBSS was added (100 μL/well). The plates were placed in an ArrayScan® HCS Reader with the Target Activation BioApplication Software coupled to Cellomics® Store and the vHCS™ Discovery Toolbox (Cellomics, Inc.) to analyze images. Briefly, the instrument was used to scan multiple optical fields, each with multiparameter fluorescence, within a subset of the wells of the 384-well microplate. The BioApplication software produced multiple numerical feature values, such as subcellular object intensities, shapes, and location for each cell within an optical field. […] A nuclear mask was generated from Hoechst 33342-stained nuclei, and object identification thresholds and shape parameters were set such that the algorithm identified over 90% of the nuclei in each field. Objects that touched each other or the edge of the image were excluded from the analysis. Tubulin mass was defined as the average green (FITC) pixel intensity in an area defined by the Hoechst-defined nuclear mask. This cytoplasmic area around the nucleus contains cytoskeletal components is a region from which sensitive measurements of cytoplasmic characteristics can be made.

[5] = Homo sapiens, 1A9/ptx-10, 72 h, read-out: GI50 ± S.D., 1A9/Ptx10 (Phe270 −> Val), 72 h incubation
[6] = Homo sapiens, 1A9/ptx-22, 72 h, read-out: GI50 ± S.D., 1A9/Ptx22 (Ala364 −> Thr), 72 h incubation
[7] = test agent 4 μM, radiolabel 4.0 μM, 37° C.

SMILES: C=C/C=C\[C@H](C)[C@H](OC(N)=O)[C@@H](C)[C@H](O)[C@@H](C)C/C(C)=C\[C@H](C)[C@@H](O)[C@@H](C)/C=C\[C@@H](O)C[C@@H]1OC(=O)[C@H](C)[C@@H](O)[C@H]1C [discodermolide, reference compound]
- fold-resistance [1]: 3.6 fold
- GI50 [1, 5]: 0.0062 ± 0.0036 µM
- fold-resistance [2]: 4.1 fold
- GI50 [2, 6]: 0.007 ± 0.0084 µM
- Percent inhibition of radiolabel from microtubules, [3H]Paclitaxel [3, 7]: 76 ± 6 (4) %
- Percent inhibition of radiolabel from microtubules, [14C]Epothilone B [3, 7]: 90 ± 1 (3) %
- Minimum detectable cellular change, Phosphohistone H3 [4]: 38.4 ± 21.9 (2)
- Minimum detectable cellular change, Tubulin polymer intensity [4]: 64.6 ± 0.0 (2)
- Minimum detectable cellular change, Nuclear condensation [4]: 62.5 (1)

SMILES: C=CC=CC(C)C1OC(=O)C=CC=CC(C)C(O)CC(O)C=CC(C)C(O)C(C)CC(C)CCC(O)C1C [Compound 59, (8S,10S,14R,20S)-Tetrahydroxy-(7R,13S,15S,17S,21s)-pentamethyl-(22S)-((1S)-methylpenta-2,4-dienyl)-oxacyclodocosa-3,5,11-trien-2-one]
- fold-resistance [1]: 5.7 fold
- GI50 ([1]; read-out: GI50 ± S.D., 1A9/Ptx10 (Phe270 −> Val), 72 h incubation): 0.12 ± 0.06 µM
- fold-resistance [2]: 2.0 fold
- GI50 ([2]; read-out: GI50 ± S.D., 1A9/Ptx22 (Ala364 −> Thr), 72 h incubation): 0.043 ± 0.012 µM
- Percent inhibition of radiolabel from microtubules, [3H]Paclitaxel [3, 7]: 7 ± 2 (3) %
- Minimum detectable cellular change, Phosphohistone H3 [4]: 261 ± 91 (4)
- Minimum detectable cellular change, Tubulin polymer intensity [4]: 284 ± 108 (4)
- Minimum detectable cellular change, Nuclear condensation [4]: 363 ± 146 (2)

SMILES: C=C/C=C\[C@H](C)[C@H](O)[C@@H](C)[C@H](O)CC[C@H](C)C[C@H](C)[C@@H](O)[C@@H](C)/C=C\[C@@H](O)C[C@H](O)[C@H](C)/C=C/C=C\C(=O)OC [Compound 50, (2Z,4E,6R,7S,9S,10Z,12S,13R,14S,16S,19R,20S,21S,22S,23Z)-Methyl-7,9,13,19,21-penta-hydroxy-6,12,14,16,20,22-hexamethylhexacosa-2,4,10,23,25-pentaenoate]
- fold-resistance [1]: 1.4 fold
- GI50 [1, 5]: 0.079 ± 0.013 µM
- fold-resistance [2]: 1.5 fold
- GI50 [2, 6]: 0.085 ± 0.002 µM
- potency relative to 1 in inhibiting the binding of radiolabeled paclitaxel to microtubules [3]: ca. 60%
- Percent inhibition of radiolabel from microtubules, [3H]Paclitaxel [3, 7]: 42 ± 1 (3) %
- Minimum detectable cellular change, Phosphohistone H3 [4]: 149 ± 23.6 (4)
- Minimum detectable cellular change, Tubulin polymer intensity [4]: 219 ± 36 (4)
- Minimum detectable cellular change, Nuclear condensation [4]: 479 ± 182 (4)

SMILES: C=C/C=C\[C@H](C)[C@@H]1OC(=O)/C=C\C=C\[C@@H](C)[C@@H](O)C[C@H](O)/C=C\[C@H](C)[C@H](O)[C@@H](C)C[C@@H](C)CC[C@@H](O)[C@@H]1C [dictyostatin-1, (8S,10S,14R,20R)-Tetrahydroxy-(7R,13S,15S,17S,21S)-pentamethyl-(22S)-((1S)-methylpenta-2,4-dienyl)oxacyclodocosa-3,5,11-trien-2-one, reference compound]
- fold-resistance [1]: 4.6 fold
- GI50 [1, 5]: 0.0032 ± 0.0024 µM
- fold-resistance [2]: 1.9 fold
- GI50 [2, 6]: 0.0013 ± 0.001 µM
- Percent inhibition of radiolabel from microtubules, [3H]Discodermolide [3, 7]: 40 ± 3 (3) %
- Percent inhibition of radiolabel from microtubules, [3H]Paclitaxel [3, 7]: 75 ± 5 (3) %
- Percent inhibition of radiolabel from microtubules, [14C]Epothilone B [3, 7]: 88 ± 1 (3) %
- Minimum detectable cellular change, Phosphohistone H3 [4]: 9.6 ± 2.4 (4)
- Minimum detectable cellular change, Tubulin polymer intensity [4]: 7.4 ± 2.5 (4)
- Minimum detectable cellular change, Nuclear condensation [4]: 32.7 ± 11.7 (3)

SMILES: C=CC=CC(C)C1OC(=O)C=CC=CC(C)C(O)CC(O)C=CC(C)C(O)C(C)CCCCC(O)C1C [Compound 79, (8S,10S,14R,20R)-Tetrahydroxy-(7R,13S,15S,21S)-tetramethyl-(22S)-((1S)-methylpenta-2,4-dienyl)-oxacyclodocosa-3,5,11-trien-2-one]
- fold-resistance [1]: 1146 fold
- GI50 [1, 5]: 0.47 ± 0.07 µM
- fold-resistance [2]: 14 fold
- GI50 [2, 6]: 0.0056 ± 0.0047 µM
- potency relative to 1 in inhibiting the binding of radiolabeled paclitaxel to microtubules [3]: ca. 60%
- Percent inhibition of radiolabel from microtubules, [3H]Paclitaxel [3, 7]: 48 ± 3 (3) %
- Minimum detectable cellular change, Phosphohistone H3 [4]: 34.4 ± 10.5 (4)
- Minimum detectable cellular change, Tubulin polymer intensity [4]: 26.9 ± 2.9 (4)
- Minimum detectable cellular change, Nuclear condensation [4]: 71.5 ± 18.0 (4)
